Among the test systems are RXF 393 renal; HOP-62 NSCLC; SK-MEL-5 melanoma; MDA-MB-231 breast; MDA-N; HOP-92 NSCLC; SNB-75 CNS; SN12C renal; LOX IMVI melanoma; HCC-2998 colon; SF-295 CNS.
Assay in all cases: growth of human tumour cells (NCI), 48 h

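Step 1: Grow cells in 96-well plates. Step 2: Expose to compound for 48 hours at 5 concentrations. Step 3: Interpolate endpoints linearly; if unreached, use highest concentration. Definition used: TGI = concentration required for complete inhibition of growth.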 Some results are limits rather than exact numbers.

In the case of `COc1cc2c(cc1OC)C(=O)/C(=C/c1ccccc1)C2`, the TGI with RXF 393 renal was above 100 µM; with HOP-62 NSCLC, above 100 µM; with SK-MEL-5 melanoma, above 84.1 µM; in the test on MDA-MB-231 breast, above 100 µM; in the test with MDA-N it was above 100 µM; in the test with HOP-92 NSCLC it was above 100 µM. The TGI in the test with SNB-75 CNS was 98.1 µM; in the test on SN12C renal, above 100 µM; in the test with LOX IMVI melanoma, above 100 µM; with HCC-2998 colon it was above 100 µM; in the test on SF-295 CNS, above 100 µM.
In the case of `COc1cc(C2c3cc4c(cc3OC(O)C2C)OCO4)cc(OC)c1O` (stereo not drawn), the TGI in the test on RXF 393 renal was above 43 µM; with HOP-62 NSCLC it was 98.9 µM; with SK-MEL-5 melanoma, above 51.6 µM; with MDA-MB-231 breast it was 89.3 µM; in the test on MDA-N, 5.06 µM; in the test on HOP-92 NSCLC it was above 94.3 µM. Further, the TGI was 26 µM with SNB-75 CNS; above 75.3 µM in the test with SN12C renal; above 100 µM in the test with LOX IMVI melanoma; 49.5 µM in the test on HCC-2998 colon; 33.9 µM in the test with SF-295 CNS.
Consider `CCC(CCCCC1CC[C@H]2CC(=O)C[C@@H]12)OC` (stereo partly drawn), for which the TGI with RXF 393 renal, with HOP-62 NSCLC, in the test on SK-MEL-5 melanoma, with MDA-MB-231 breast, with MDA-N and in the test on HOP-92 NSCLC was above 100 µM in each case. The TGI in the test with SNB-75 CNS, with SN12C renal, with LOX IMVI melanoma, in the test with HCC-2998 colon and in the test with SF-295 CNS was above 100 µM in each case.
With `CCOC(=O)c1nc2ccc(C(F)(F)F)cc2nc1Nc1ccc(OC)c(OC)c1`, the TGI is above 100 µM with RXF 393 renal; 29 µM in the test with HOP-62 NSCLC; above 100 µM with SK-MEL-5 melanoma; above 100 µM in the test with MDA-MB-231 breast; above 100 µM with MDA-N; above 100 µM in the test with HOP-92 NSCLC. For the same compound, the TGI in the test with SNB-75 CNS is 67.4 µM; in the test on SN12C renal, above 100 µM; in the test on LOX IMVI melanoma, above 100 µM; in the test with HCC-2998 colon it was above 100 µM; in the test on SF-295 CNS it was above 100 µM.
In the case of `Clc1ccc(CSCc2ccc(Cl)cc2Cl)c(Cl)c1`, the TGI in the test with RXF 393 renal is 94.2 µM; with HOP-62 NSCLC it was above 100 µM; with SK-MEL-5 melanoma, 97.9 µM; in the test with MDA-MB-231 breast, above 100 µM; with MDA-N, above 100 µM; in the test on HOP-92 NSCLC it was above 100 µM. For the same compound, the TGI is 89 µM in the test with SNB-75 CNS; above 100 µM with SN12C renal; above 100 µM in the test with LOX IMVI melanoma; 98.2 µM in the test on HCC-2998 colon; above 100 µM in the test on SF-295 CNS.
For the compound `O=C1C=Cc2c(I)sc(I)c21`, the TGI in the test with RXF 393 renal is 40.3 µM; in the test with HOP-62 NSCLC, above 100 µM; in the test with SK-MEL-5 melanoma it was above 100 µM; in the test on MDA-MB-231 breast, 68.8 µM; in the test on MDA-N, 87.2 µM; in the test with HOP-92 NSCLC, 33 µM. For the same compound, the TGI in the test on SNB-75 CNS is 87.4 µM; in the test on SN12C renal, 45.7 µM; in the test on LOX IMVI melanoma, 25.2 µM; in the test on HCC-2998 colon, 35.3 µM; in the test with SF-295 CNS, above 100 µM.
For the compound `Cc1c(C)c(C)c(CSC(=N)N)c(C)c1C`, the TGI with RXF 393 renal is 33.2 µM; with HOP-62 NSCLC, 29.1 µM; in the test with SK-MEL-5 melanoma, 26.6 µM; with MDA-MB-231 breast it was 27.1 µM; in the test on MDA-N it was 40.3 µM; in the test with HOP-92 NSCLC, 30.9 µM. Moreover, the TGI with SNB-75 CNS was determined as 29 µM; in the test with SN12C renal, 32.3 µM; in the test on LOX IMVI melanoma, 79.2 µM; in the test on HCC-2998 colon, 27.8 µM; in the test on SF-295 CNS, 21.7 µM.
Regarding `C(=N/Nc1ccccn1)/c1cccnc1`, the TGI in the test with RXF 393 renal, in the test on HOP-62 NSCLC, with SK-MEL-5 melanoma, in the test with MDA-MB-231 breast, in the test on MDA-N and in the test with HOP-92 NSCLC was above 100 µM each time. Also, the TGI in the test on SNB-75 CNS, in the test on SN12C renal, in the test on LOX IMVI melanoma, in the test with HCC-2998 colon and in the test with SF-295 CNS was above 100 µM throughout.
`CCCCN1C(=O)C[C@H]2[C@@H]3CCc4cc(OCCN5CCCC5)ccc4[C@H]3CC[C@]2(C)C1=O`: the TGI with RXF 393 renal was determined as 4.59 µM; with HOP-62 NSCLC it was 12.2 µM; with SK-MEL-5 melanoma it was 15.7 µM; in the test on MDA-MB-231 breast, 15.7 µM; in the test with MDA-N it was 15.1 µM; in the test with HOP-92 NSCLC, 18.3 µM. Besides, the TGI in the test with SNB-75 CNS was determined as 14 µM; in the test on SN12C renal, 30.2 µM; with LOX IMVI melanoma, 10.8 µM; with HCC-2998 colon it was 15.8 µM; in the test on SF-295 CNS, 9.63 µM.
Consider `C=C1C(=O)O[C@H]2[C@H]3O[C@@H](C[C@@H]12)[C@](C)(O)CCCC(C)=CCC[C@H]3C`, for which the TGI worked out at 20.3 µM with RXF 393 renal; 31.3 µM with HOP-62 NSCLC; 31.1 µM with SK-MEL-5 melanoma; 35.8 µM with MDA-MB-231 breast; 75.8 µM in the test with MDA-N; 8.45 µM in the test with HOP-92 NSCLC. Also, the TGI was 22.3 µM in the test on SNB-75 CNS; 71.4 µM in the test on SN12C renal; 48.2 µM with LOX IMVI melanoma; 23.6 µM in the test on HCC-2998 colon; 31.7 µM in the test with SF-295 CNS.
On to `O=C1C(c2c(O)[nH]c3ccc(S(=O)(=O)N(CCO)CCO)cc23)=Nc2ccccc21`, for which the TGI was 6.53 µM with RXF 393 renal; above 100 µM with HOP-62 NSCLC; above 100 µM in the test on SK-MEL-5 melanoma; above 100 µM in the test with MDA-MB-231 breast; above 100 µM in the test on MDA-N; above 100 µM with HOP-92 NSCLC. The TGI in the test on SNB-75 CNS is 8.49 µM; in the test with SN12C renal, above 100 µM; in the test on LOX IMVI melanoma, above 100 µM; in the test on HCC-2998 colon, above 100 µM; in the test with SF-295 CNS it was above 100 µM.
Regarding `CC1(c2nc3cc(Cl)c(Cl)cc3[nH]2)CCC(C(=O)O)C(C)(C)O1` (stereo not drawn), the TGI with RXF 393 renal, with HOP-62 NSCLC, with SK-MEL-5 melanoma, in the test with MDA-MB-231 breast, with MDA-N and with HOP-92 NSCLC was above 100 µM each time. Further, the TGI with SNB-75 CNS, in the test with SN12C renal, with LOX IMVI melanoma, in the test on HCC-2998 colon and in the test with SF-295 CNS was above 100 µM in each case.
On to `O=C(NO)c1ccc(OCc2ccccc2)cc1`, for which the TGI in the test on RXF 393 renal, in the test with HOP-62 NSCLC, in the test on SK-MEL-5 melanoma, in the test with MDA-MB-231 breast, with MDA-N and in the test with HOP-92 NSCLC was above 100 µM each time. Further, the TGI was above 100 µM with SNB-75 CNS; above 100 µM in the test with SN12C renal; 55.8 µM in the test on LOX IMVI melanoma; above 100 µM in the test on HCC-2998 colon; above 100 µM with SF-295 CNS.

The record behind these values is PubChem BioAssay (NCI).
